# According to the supplement of paper PMC10307832:
# What was measured:
# Assay in all cases: relative viability (nuclei count vs DMSO), 5 days (fraction); higher = more cells survive
# NCI-H1793 = test system: NCI-H1793
# How it was run: (§1)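 After 5 days of treatment, lung cancer cells in 1536-well plates were fixed and stained in a single step (final 0.05% Triton X-100, 1% formaldehyde, 1 ug/ml Hoechst) and their nuclei counted on 4× images. Treatment had been applied by pin tool the day after seeding as one drug alone or as a fixed anchor-drug dose with five library-drug doses (not always all listed) in √10 steps. Relative viability is the nuclei count of treated wells divided by that of vehicle wells, and values are medians of duplicate plates.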
# ChaGo-K-1 = test system: ChaGo-K-1
# How it was run: as §1
# HCC-15 = test system: HCC-15
# How it was run: as §1
# NCI-H1993 = test system: NCI-H1993
# How it was run: as §1
# ABC-1 = test system: ABC-1
# How it was run: as §1
# NCI-H1944 = test system: NCI-H1944
# How it was run: as §1
# HARA = test system: HARA
# How it was run: as §1
# SK-LU-1 = test system: SK-LU-1
# How it was run: as §1
# NCI-H2126 = test system: NCI-H2126
# How it was run: as §1
# LC-2-ad = test system: LC-2-ad
# How it was run: as §1
# NCI-H1734 = test system: NCI-H1734
# How it was run: as §1
# NCI-H838 = test system: NCI-H838
# How it was run: as §1
# NCI-H2228 = test system: NCI-H2228
# How it was run: as §1
# NCI-H2405 = test system: NCI-H2405
# How it was run: as §1
# A-427 = test system: A-427
# How it was run: as §1
# HCC-78 = test system: HCC-78
# How it was run: as §1
# UMC-11 = test system: UMC-11
# How it was run: as §1
# HCC-366 = test system: HCC-366
# How it was run: as §1
# EMC-BAC-2 = test system: EMC-BAC-2
# How it was run: as §1
# NCI-H23 = test system: NCI-H23
# How it was run: as §1
# NCI-H2009 = test system: NCI-H2009
# How it was run: as §1
# NCI-H2023 = test system: NCI-H2023
# How it was run: as §1
# COR-L23 = test system: COR-L23
# How it was run: as §1
compound,measurement,setting,value
Oc1nc(-c2ccc(C(F)(F)F)cc2)nc2c1CSCC2 [XAV939] + COc1cc2c(Oc3ccc(NC(=O)C4(C(=O)Nc5ccc(F)cc5)CC4)cc3F)ccnc2cc1OCCCN1CCOCC1 [Foretinib] (partner 0.25 µM),relative viability,NCI-H1793; first compound 0.08 µM,0.846
same,relative viability,NCI-H1793; first compound 0.253 µM,0.558
same,relative viability,NCI-H1793; first compound 0.8 µM,0.63
same,relative viability,NCI-H1793; first compound 2.53 µM,0.454
same,relative viability,ChaGo-K-1; first compound 0.08 µM,0.874
same,relative viability,ChaGo-K-1; first compound 0.253 µM,1.01
same,relative viability,ChaGo-K-1; first compound 0.8 µM,0.812
same,relative viability,ChaGo-K-1; first compound 2.53 µM,0.773
same,relative viability,HCC-15; first compound 0.08 µM,1.2
same,relative viability,HCC-15; first compound 0.253 µM,0.984
same,relative viability,HCC-15; first compound 0.8 µM,1.05
same,relative viability,HCC-15; first compound 2.53 µM,0.988
same,relative viability,NCI-H1993; first compound 0.08 µM,0.753
same,relative viability,NCI-H1993; first compound 0.253 µM,0.7
same,relative viability,NCI-H1993; first compound 0.8 µM,0.688
same,relative viability,NCI-H1993; first compound 2.53 µM,0.65
same,relative viability,ABC-1; first compound 0.08 µM,1.16
same,relative viability,ABC-1; first compound 0.253 µM,0.732
same,relative viability,ABC-1; first compound 0.8 µM,0.935
same,relative viability,ABC-1; first compound 2.53 µM,0.635
same,relative viability,NCI-H1944; first compound 0.08 µM,0.942
same,relative viability,NCI-H1944; first compound 0.253 µM,0.842
same,relative viability,NCI-H1944; first compound 0.8 µM,0.814
same,relative viability,NCI-H1944; first compound 2.53 µM,0.704
same,relative viability,HARA; first compound 0.08 µM,1.03
same,relative viability,HARA; first compound 0.253 µM,0.79
same,relative viability,HARA; first compound 0.8 µM,0.248
same,relative viability,HARA; first compound 2.53 µM,0.678
same,relative viability,SK-LU-1; first compound 0.08 µM,0.861
same,relative viability,SK-LU-1; first compound 0.253 µM,0.756
same,relative viability,SK-LU-1; first compound 0.8 µM,0.883
same,relative viability,SK-LU-1; first compound 2.53 µM,0.78
same,relative viability,NCI-H2126; first compound 0.08 µM,1.1
same,relative viability,NCI-H2126; first compound 0.253 µM,0.989
same,relative viability,NCI-H2126; first compound 0.8 µM,1.17
same,relative viability,NCI-H2126; first compound 2.53 µM,0.725
same,relative viability,LC-2-ad; first compound 0.08 µM,1
same,relative viability,LC-2-ad; first compound 0.253 µM,0.854
same,relative viability,LC-2-ad; first compound 0.8 µM,0.911
same,relative viability,LC-2-ad; first compound 2.53 µM,0.843
same,relative viability,NCI-H1734; first compound 0.08 µM,0.953
same,relative viability,NCI-H1734; first compound 0.253 µM,0.784
same,relative viability,NCI-H1734; first compound 0.8 µM,0.913
same,relative viability,NCI-H1734; first compound 2.53 µM,0.829
same,relative viability,NCI-H838; first compound 0.08 µM,1.01
same,relative viability,NCI-H838; first compound 0.253 µM,0.957
same,relative viability,NCI-H838; first compound 0.8 µM,0.931
same,relative viability,NCI-H838; first compound 2.53 µM,0.575
same,relative viability,NCI-H2228; first compound 0.08 µM,0.98
same,relative viability,NCI-H2228; first compound 0.253 µM,0.874
same,relative viability,NCI-H2228; first compound 0.8 µM,0.91
same,relative viability,NCI-H2228; first compound 2.53 µM,0.847
same,relative viability,NCI-H2405; first compound 0.08 µM,0.99
same,relative viability,NCI-H2405; first compound 0.253 µM,1.01
same,relative viability,NCI-H2405; first compound 0.8 µM,1.03
same,relative viability,NCI-H2405; first compound 2.53 µM,1.01
same,relative viability,A-427; first compound 0.08 µM,1.26
same,relative viability,A-427; first compound 0.253 µM,1.07
same,relative viability,A-427; first compound 0.8 µM,1.04
same,relative viability,A-427; first compound 2.53 µM,0.862
same,relative viability,HCC-78; first compound 0.08 µM,0.591
same,relative viability,HCC-78; first compound 0.253 µM,0.552
same,relative viability,HCC-78; first compound 0.8 µM,0.552
same,relative viability,HCC-78; first compound 2.53 µM,0.506
same,relative viability,UMC-11; first compound 0.08 µM,1.13
same,relative viability,UMC-11; first compound 0.253 µM,0.873
same,relative viability,UMC-11; first compound 0.8 µM,0.978
same,relative viability,UMC-11; first compound 2.53 µM,0.8
same,relative viability,HCC-366; first compound 0.08 µM,0.91
same,relative viability,HCC-366; first compound 0.253 µM,0.877
same,relative viability,HCC-366; first compound 0.8 µM,0.933
same,relative viability,HCC-366; first compound 2.53 µM,0.941
same,relative viability,EMC-BAC-2; first compound 0.08 µM,1.05
same,relative viability,EMC-BAC-2; first compound 0.253 µM,0.747
same,relative viability,EMC-BAC-2; first compound 0.8 µM,0.848
same,relative viability,EMC-BAC-2; first compound 2.53 µM,0.553
same,relative viability,NCI-H23; first compound 0.08 µM,1.08
same,relative viability,NCI-H23; first compound 0.253 µM,0.844
same,relative viability,NCI-H23; first compound 0.8 µM,0.868
same,relative viability,NCI-H23; first compound 2.53 µM,0.962
same,relative viability,NCI-H2009; first compound 0.08 µM,1.32
same,relative viability,NCI-H2009; first compound 0.253 µM,1.21
same,relative viability,NCI-H2009; first compound 0.8 µM,1.18
same,relative viability,NCI-H2009; first compound 2.53 µM,1.16
same,relative viability,NCI-H2023; first compound 0.08 µM,0.847
same,relative viability,NCI-H2023; first compound 0.253 µM,0.756
same,relative viability,NCI-H2023; first compound 0.8 µM,0.659
same,relative viability,NCI-H2023; first compound 2.53 µM,0.514
same,relative viability,COR-L23; first compound 0.08 µM,1.13
same,relative viability,COR-L23; first compound 0.253 µM,0.96
same,relative viability,COR-L23; first compound 0.8 µM,0.948
same,relative viability,COR-L23; first compound 2.53 µM,0.903
